Among the data in US20250304587A1, “WEE1 INHIBITOR, PREPARATION THEREFOR AND USE THEREOF” (JIANGSU TASLY DIYI PHARMACEUTICAL CO., LTD., priority 2022, published 2025) are IC50 values, retold here.

One experiment relates to HT-29 cells. The experiment can be described thus: Cell Titer-Glo anti-proliferation, HT-29 cells. In kind it is cell-based, human. As to conditions: 3 days, read-out: Anti-proliferative activity HT-29 (IC50 class). The protocol: (§1) A. Evaluation of the Anti-Proliferative Effect of Compounds on BxPC3, HT-29 and OVCAR-3 Cells by the Cell Titer-Glo Method
(§2) Compound solutions of different concentration gradients were prepared. […] The cell growth group without compound was used as a positive control (maximum signal control) and the medium was used as a negative control (minimum signal control), while ensuring that the final level of DMSO in each reaction well was 0.2%. After removing the medium from the 384-well plate, 25 μl of the configured compound at different concentrations was transferred into the well plate and the compound and cells were incubated in the cell incubator at 37° C. with 5% CO2 for 3 days.
(§3) The 384-well plates were removed from the cell incubator and allowed to equilibrate for 1 h to room temperature. 25 μl of Cell Titer-Glo assay was added to each well, lysed on a shaker for 2 min and then read out (Luminescence) using a BMG PHERAStar after 10 min incubation. Calculate the inhibition rate from the luminescence signal.
(§4) to calculate the rate of inhibition of the cells by different concentrations of the compounds. The IC50 of the compound on cell activity inhibition was calculated by fitting a log(inhibitor) vs. response-Variable slope model to GraphPad Prism 6. The fitted equation was: Y=Bottom+(Top-Bottom)/(1+10^((Log IC50−X)*HillSlope)), where Y represents the rate of inhibition and X represents the concentration of the known compound after Log.
In general terms: ATP-based viability assays read luminescence as a measure of living cells.

A further experiment has as its system BxPC3 cells. The experiment can be described thus: Cell Titer-Glo anti-proliferation, BxPC3 cells. The format is cell-based, human. The conditions noted are these: 3 days, read-out: Anti-proliferative activity BxPC3 (IC50 class). The protocol:
as §1, §2, §3, §4

The next experiment concerns OVCAR-3 cells. The experiment can be described thus: Cell Titer-Glo anti-proliferation, OVCAR-3 cells. As to conditions: 3 days, read-out: Anti-proliferative activity OVCAR-3 (IC50 class). In kind it is cell-based. The procedure:
as §1, §2, §3, §4

The structures appear in SMILES notation.

Usually IC50 stands for the concentration that inhibits the measured activity by half. For `C=CCn1c(=O)c2cnc(Nc3ccc(N4CCC(N(C)C)CC4)c(C)c3)nc2n1-c1ccc2c(n1)C(O)C1(CC2)CC1` (single isomer, unassigned) [Compound 41a], the IC50 was 100 to 1000 nM in the experiment on HT-29 cells, 1000 to 2000 nM in the experiment with BxPC3 cells and 100 to 1000 nM in the experiment on OVCAR-3 cells.
On to `C=CCn1c(=O)c2cnc(Nc3ccc(N4CCC(N(C)C)CC4)c(C)c3)nc2n1-c1ccc2c(n1)[C@](C)(O)C1(CC1)C2` (single isomer, unassigned) [Compound 42a], for which the IC50 with HT-29 cells, with BxPC3 cells and with OVCAR-3 cells was 100 to 1000 nM throughout.
On to `C=CCn1c(=O)c2cnc(Nc3ccc(N4CCC(N(C)C)CC4)c(C)c3)nc2n1-c1ccc2c(n1)[C@@](C)(O)C1(CC1)C2` (single isomer, unassigned) [Compound 42b], for which the IC50 with HT-29 cells, with BxPC3 cells and in the experiment with OVCAR-3 cells was 100 to 1000 nM throughout.
Consider `C=CCn1c(=O)c2cnc(Nc3ccc(N4CC5CN(C)CC5C4)cc3)nc2n1-c1ccc2c(n1)C(C)(O)C1(CC2)CC1` (single isomer, unassigned) [Compound 43a], for which the IC50 with HT-29 cells, in the experiment with BxPC3 cells and in the experiment with OVCAR-3 cells was 100 to 1000 nM each time.
As to `C=CCn1c(=O)c2cnc(Nc3ccc(N4C[C@H]5CN(C)C[C@H]5C4)cc3)nc2n1-c1ccc2c(n1)[C@@](C)(O)C1(CC2)CC1` (single isomer, unassigned) [Compound 43b], the IC50 with HT-29 cells, with BxPC3 cells and with OVCAR-3 cells was 100 to 1000 nM each time.
Turning to `C=CCn1c(=O)c2cnc(Nc3ccc(N4C[C@@H]5C[C@H]4CN5C)cc3)nc2n1-c1ccc2c(n1)[C@@](C)(O)C1(CC2)CC1` (single isomer, unassigned) [Compound 45a], the half-maximal inhibitory concentration (IC50) was 100 to 1000 nM with HT-29 cells, 1000 to 2000 nM in the experiment with BxPC3 cells and 100 to 1000 nM in the experiment on OVCAR-3 cells.
Take `C=CCn1c(=O)c2cnc(Nc3ccc(N4C[C@@H]5C[C@H]4CN5C)cc3)nc2n1-c1ccc2c(n1)[C@](C)(O)C1(CC2)CC1` (single isomer, unassigned) [Compound 45b]: the IC50 with HT-29 cells, with BxPC3 cells and in the experiment with OVCAR-3 cells was 1000 to 2000 nM each time.
On to `C=CCn1c(=O)c2cnc(Nc3ccc(N4CCC(N(C)C)CC4)c(C)c3)nc2n1-c1ccc2c(n1)[C@@H](O)C1(CC2)CC1` (single isomer, unassigned) [Compound 48a], for which the IC50 in the experiment on HT-29 cells, in the experiment with BxPC3 cells and in the experiment on OVCAR-3 cells was 100 to 1000 nM each time.
Turning to `C=CCn1c(=O)c2cnc(Nc3ccc(N4CC5CC(C4)N5C(C)=O)cc3)nc2n1-c1ccc2c(n1)[C@@](C)(O)C1(CC2)CC1` (single isomer, unassigned) [Compound 50a], the IC50 in the experiment with HT-29 cells, in the experiment with BxPC3 cells and with OVCAR-3 cells was 100 to 1000 nM each time.
Consider `C=CCn1c(=O)c2cnc(Nc3ccc(N4CC5CC(C4)N5C(C)=O)cc3)nc2n1-c1ccc2c(n1)[C@](C)(O)C1(CC2)CC1` (single isomer, unassigned) [Compound 50b], for which the IC50 in the experiment on HT-29 cells, in the experiment on BxPC3 cells and in the experiment on OVCAR-3 cells was 100 to 1000 nM throughout.
Regarding `C=CCn1c(=O)c2cnc(Nc3ccc(N4CCN(C)CC4)cc3)nc2n1-c1ccc2c(n1)[C@](O)(C(F)(F)F)C1(CC2)CC1` (single isomer, unassigned) [Compound 53a], the IC50 was 1000 to 2000 nM in the experiment on HT-29 cells, 2000 to 5000 nM in the experiment on BxPC3 cells and 2000 to 5000 nM in the experiment with OVCAR-3 cells.
Regarding `C=CCn1c(=O)c2cnc(Nc3ccc(N4CCC(N(C)C)CC4)cc3)nc2n1-c1ccc2c(n1)[C@](O)(C(F)(F)F)C1(CC2)CC1` (single isomer, unassigned) [Compound 54a], the IC50 in the experiment with HT-29 cells fell in the range of 1000 to 2000 nM; in the experiment on BxPC3 cells, 2000 to 5000 nM; with OVCAR-3 cells, 2000 to 5000 nM.
In the case of `C=CCn1c(=O)c2cnc(Nc3ccc(N4CCN(C(C)C)CC4)cc3)nc2n1-c1ccc2c(n1)C(O)C1(CC2)CC1` (single isomer, unassigned) [Compound 57a], the IC50 with HT-29 cells was 1000 to 2000 nM; in the experiment with BxPC3 cells, 2000 to 5000 nM; in the experiment on OVCAR-3 cells, 2000 to 5000 nM.
For the compound `C=CCn1c(=O)c2cnc(Nc3ccc(N4CC5CN(C)CC5C4)cc3)nc2n1-c1ccc2c(n1)C(O)(C(F)(F)F)C1(CC2)CC1` (single isomer, unassigned) [Compound 58a], the values for the IC50 in the experiment with HT-29 cells, with BxPC3 cells and in the experiment on OVCAR-3 cells were 100 to 1000 nM, 1000 to 2000 nM and 2000 to 5000 nM, respectively.
With `C=CCn1c(=O)c2cnc(Nc3ccc(N4CC5CC(C4)N5CCF)cc3)nc2n1-c1ccc2c(n1)[C@](C)(O)C1(CC2)CC1` (single isomer, unassigned) [Compound 59a], the IC50 in the experiment with HT-29 cells, with BxPC3 cells and in the experiment on OVCAR-3 cells was 100 to 1000 nM each time.
In the case of `C=CCn1c(=O)c2cnc(Nc3ccc(N4CCC(N(C)C)C(F)C4)cc3)nc2n1-c1ccc2c(n1)C(C)(O)C1(CC2)CC1` (single isomer, unassigned) [Compound 60b], the IC50 in the experiment with HT-29 cells, in the experiment with BxPC3 cells and in the experiment with OVCAR-3 cells was 100 to 1000 nM in each case.
Take `C=CCn1c(=O)c2cnc(Nc3ccc(N4CCC5(CCN(C)CC5)CC4)c(C)c3)nc2n1-c1ccc2c(n1)C(O)C1(CC2)CC1` (single isomer, unassigned) [Compound 61a]: the IC50 with HT-29 cells, with BxPC3 cells and in the experiment on OVCAR-3 cells was 100 to 1000 nM in each case.
As to `C=CCn1c(=O)c2cnc(Nc3ccc(N4CCC5(CCN(C)CC5)CC4)c(F)c3)nc2n1-c1ccc2c(n1)C(O)C1(CC2)CC1` (single isomer, unassigned) [Compound 62a], the IC50 fell in the range of 100 to 1000 nM with HT-29 cells, 1000 to 2000 nM in the experiment with BxPC3 cells and 1000 to 2000 nM in the experiment with OVCAR-3 cells.
As to `C=CCn1c(=O)c2cnc(Nc3ccc(N4CC5CN(C)CC5C4)cc3)nc2n1-c1ccc2c(n1)C(O)C1(CC2)CC1` (single isomer, unassigned) [Compound 63a], the IC50 with HT-29 cells, in the experiment with BxPC3 cells and with OVCAR-3 cells was 100 to 1000 nM in each case.
Regarding `C=CCn1c(=O)c2cnc(Nc3ccc(N4C[C@H]5CN(C)C[C@H]5C4)cc3)nc2n1-c1ccc2c(n1)[C@H](O)C1(CC2)CC1` (single isomer, unassigned) [Compound 63b], the values for the IC50 in the experiment on HT-29 cells, with BxPC3 cells and with OVCAR-3 cells were 100 to 1000 nM, 1000 to 2000 nM and 1000 to 2000 nM, respectively.
As to `C=CCn1c(=O)c2cnc(Nc3ccc(N4CC5CC(C4)N5C)cc3)nc2n1-c1ccc2c(n1)[C@](O)(CC)C1(CC2)CC1` (single isomer, unassigned) [Compound 64a], the IC50 with HT-29 cells, in the experiment with BxPC3 cells and in the experiment with OVCAR-3 cells was 100 to 1000 nM in each case.
`C=CCn1c(=O)c2cnc(Nc3ccc(N4CC5CC(C4)N5C)cc3)nc2n1-c1ccc2c(n1)[C@@](O)(CC)C1(CC2)CC1` (single isomer, unassigned) [Compound 64b]: the IC50 in the experiment with HT-29 cells, with BxPC3 cells and in the experiment on OVCAR-3 cells was 100 to 1000 nM in each case.
For `C=CCn1c(=O)c2cnc(Nc3ccc(N4CCC(N(C)C)CC4)cc3)nc2n1-c1ccc2c(n1)C(O)C1(CC2)CC1` (single isomer, unassigned) [Compound 66a], the IC50 lay in the range of 1000 to 2000 nM in the experiment with HT-29 cells, 2000 to 5000 nM in the experiment with BxPC3 cells and 2000 to 5000 nM in the experiment with OVCAR-3 cells.
For `C=CCn1c(=O)c2cnc(Nc3ccc(N4CCN(C)[C@H](C)C4)cc3)nc2n1-c1ccc2c(n1)[C@@H](O)C1(CC2)CC1` (single isomer, unassigned) [Compound 68a], the IC50 in the experiment with HT-29 cells lay in the range of 1000 to 2000 nM; with BxPC3 cells, 2000 to 5000 nM; in the experiment with OVCAR-3 cells, 2000 to 5000 nM.
For the compound `C=CCn1c(=O)c2cnc(Nc3ccc(N4CCC5(CCN(C)CC5)CC4)cc3)nc2n1-c1ccc2c(n1)[C@](O)(CC)C1(CC2)CC1` (single isomer, unassigned) [Compound 69a], the IC50 in the experiment on HT-29 cells was in the range of 100 to 1000 nM; in the experiment with BxPC3 cells, 1000 to 2000 nM; with OVCAR-3 cells, 100 to 1000 nM.
Take `C=CCn1c(=O)c2cnc(Nc3ccc(N4CC5CC(C4)N5C)cc3)nc2n1-c1ccc2c(n1)[C@](C)(O)C1(CC2)CC1` [Compound 7b]: the IC50 with HT-29 cells, in the experiment on BxPC3 cells and in the experiment on OVCAR-3 cells was 100 to 1000 nM throughout.
Regarding `C=CCn1c(=O)c2cnc(Nc3ccc(N4CC5CC(C4)N5C)cc3)nc2n1-c1ccc2c(n1)C(C)(O)C1(CC1)C2` (stereo not drawn) [Compound 13], the IC50 with HT-29 cells, in the experiment on BxPC3 cells and with OVCAR-3 cells was 100 to 1000 nM in each case.
On to `C=CCn1c(=O)c2cnc(Nc3ccc(N4C[C@H]5C[C@@H]4CN5C)cc3)nc2n1-c1ccc2c(n1)C(O)(CC)C1(CC1)C2` (stereo partly drawn) [Compound 26], for which the values for the IC50 with HT-29 cells, in the experiment with BxPC3 cells and with OVCAR-3 cells were 1000 to 2000 nM, 2000 to 5000 nM and 2000 to 5000 nM, respectively.
`C=CCn1c(=O)c2cnc(Nc3ccc(N4CCN(C)CC4)c(F)c3)nc2n1-c1ccc2c(n1)C(O)(CC)C1(CC1)C2` (stereo not drawn) [Compound 33]: the IC50 with HT-29 cells was in the range of 1000 to 2000 nM; in the experiment with BxPC3 cells it was 2000 to 5000 nM; in the experiment with OVCAR-3 cells it was 2000 to 5000 nM.
As for `C=CCn1c(=O)c2cnc(Nc3ccc(N4CCC5(CCN(C)CC5)CC4)cc3)nc2n1-c1ccc2c(n1)[C@@H](O)C1(CC2)CC1` [Compound 38a], the IC50 in the experiment with HT-29 cells was 100 to 1000 nM; with BxPC3 cells, 1000 to 2000 nM; with OVCAR-3 cells, 1000 to 2000 nM.
Take `C=CCn1c(=O)c2cnc(Nc3ccc(N4CCN(C)[C@H](C)C4)cc3)nc2n1-c1ccc2c(n1)C(O)(CC)C1(CC1)C2` (stereo partly drawn) [Compound 40]: the IC50 was in the range of 100 to 1000 nM with HT-29 cells, 1000 to 2000 nM in the experiment on BxPC3 cells and 100 to 1000 nM with OVCAR-3 cells.
